Data taken from the NIST ThermoML archive (doi:10.1016/j.jct.2016.07.046).

Assay: mn = molality of the nth substance listed, in mol/kg
Conditions: 87 kPa, Liquid, Vibrating tube method

CCn1cc[n+](C)c1.O=S(=O)([O-])O [1-ethyl-3-methylimidazolium hydrogen sulfate] + O
mass density [kg/m3]
Conditions | 293.15 K | 298.15 K | 303.15 K | 308.15 K | 313.15 K
m1 = 0.05 | 1001.85 | 1000.62 | 999.15 | 997.45 | 995.6
m1 = 0.1 | 1005.19 | 1003.89 | 1002.36 | 1000.61 | 998.69
m1 = 0.15 | 1008.26 | 1006.91 | 1005.32 | 1003.53 | 1001.51

NCC(=O)O [2-aminoacetic acid] + O
mass density [kg/m3]
Conditions | m1 = 0.0547 | m1 = 0.1057 | m1 = 0.1546 | m1 = 0.2061 | m1 = 0.2531 | m1 = 0.3046 | m1 = 0.3538 | m1 = 0.403 | m1 = 0.452 | m1 = 0.499
293.15 K | 999.97 | 1001.59 | 1003.13 | 1004.74 | 1006.2 | 1007.78 | 1009.28 | 1010.77 | 1012.24 | 1013.64
298.15 K | 998.8 | 1000.41 | 1001.94 | 1003.54 | 1004.99 | 1006.56 | 1008.06 | 1009.54 | 1011 | 1012.39
303.15 K | 997.39 | 998.99 | 1000.51 | 1002.1 | 1003.53 | 1005.09 | 1006.57 | 1008.04 | 1009.48 | 1010.86
308.15 K | 995.77 | 997.36 | – | 1000.45 | 1001.88 | 1003.42 | 1004.89 | 1006.35 | 1007.78 | 1009.14
313.15 K | 993.92 | 995.5 | 997 | – | 999.99 | 1001.53 | 1002.98 | 1004.43 | 1005.86 | 1007.22

N[C@@H](CO)C(=O)O [L-serine] + O
mass density [kg/m3]
Conditions | m1 = 0.0529 | m1 = 0.1005 | m1 = 0.1529 | m1 = 0.2024 | m1 = 0.2541 | m1 = 0.3019 | m1 = 0.3525 | m1 = 0.4023 | m1 = 0.4535 | m1 = 0.5008
293.15 K | 1000.59 | 1002.7 | 1005 | 1007.15 | 1009.38 | 1011.42 | 1013.56 | 1015.65 | 1017.77 | 1019.72
298.15 K | 999.41 | 1001.5 | 1003.78 | 1005.92 | 1008.13 | 1010.15 | 1012.27 | 1014.34 | 1016.44 | 1018.37
303.15 K | 997.99 | 1000.06 | 1002.33 | 1004.45 | 1006.64 | 1008.65 | 1010.76 | 1012.81 | 1014.9 | 1016.82
308.15 K | 996.36 | 998.42 | 1000.67 | 1002.77 | 1004.94 | 1006.94 | 1009.04 | 1011.08 | 1013.16 | 1015.07
313.15 K | 994.5 | 996.54 | 998.77 | 1000.85 | 1003.01 | 1004.99 | 1007.07 | 1009.11 | 1011.18 | 1013.07
